Measurements as given in PubChem BioAssay (NCI).
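At the GI50, growth is halved. TGI marks complete inhibition of growth.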

Legend:
Assay in all cases: NCI-60 cell line screen, 384-well format; in the data active = GI50 below about 0.43 µM; inactive = the rest
[1] = tested on: MDA-MB-231 breast
[2] = tested on: NCI/ADR-RES ovarian
[3] = tested on: ACHN renal
[4] = tested on: DU-145 prostate
[5] = tested on: NCI-H460 NSCLC
[6] = tested on: OVCAR-4 ovarian
[7] = tested on: HCT-15 colon
[8] = tested on: SK-MEL-5 melanoma
[9] = tested on: HS 578T breast
[10] = tested on: MDA-MB-468 breast
[11] = tested on: TK-10 renal
[12] = tested on: M14 melanoma
[13] = tested on: MDA-MB-435 melanoma
[14] = tested on: UO-31 renal
[15] = tested on: SR leukemia
[16] = tested on: PC-3 prostate
[17] = tested on: SF-268 CNS
[18] = tested on: MCF7 breast
[19] = tested on: OVCAR-8 ovarian
[20] = tested on: NCI-H522 lung
[21] = tested on: BT-549 breast
[22] = tested on: 786-0 renal
[23] = tested on: SK-OV-3 ovarian
[24] = tested on: HCC-2998 colon
[25] = tested on: KM12 colon
[26] = tested on: RPMI-8226 leukemia
[27] = tested on: SK-MEL-28 melanoma
[28] = tested on: HOP-62 NSCLC
[29] = tested on: LOX IMVI melanoma
[30] = tested on: A498 renal
[31] = tested on: EKVX NSCLC
[32] = tested on: UACC-257 melanoma
[33] = tested on: MOLT-4 leukemia
[34] = tested on: HL-60(TB) leukemia
[35] = tested on: SN12C renal
[36] = tested on: MALME-3M melanoma
[37] = tested on: UACC-62 melanoma
[38] = tested on: U251 glioblastoma
[39] = tested on: SNB-75 CNS
[40] = tested on: T-47D breast
[41] = tested on: NCI-H226 lung
[42] = tested on: COLO 205 colon
[43] = tested on: CAKI-1 renal
[44] = tested on: IGROV1 ovarian
[45] = tested on: SNB-19 CNS
[46] = tested on: NCI-H23 lung
[47] = tested on: NCI-H322M lung
[48] = tested on: RXF 393 renal
[49] = tested on: HCT-116 colon
[50] = tested on: OVCAR-3 ovarian
[51] = tested on: SW-620 colon
[52] = tested on: SF-295 CNS
[53] = tested on: A549 NSCLC
[54] = tested on: K-562 leukemia
[55] = tested on: HT29 colon
[56] = tested on: SF-539 CNS
[57] = tested on: OVCAR-5 ovarian
[58] = tested on: CCRF-CEM leukemia
[59] = tested on: SK-MEL-2 melanoma
[60] = tested on: HOP-92 NSCLC

Cc1ccc(Nc2nccc(N(C)c3ccc4c(C)n(C)nc4c3)n2)cc1S(N)(=O)=O
3.04 µM: TGI [48]
93.6 µM: TGI [2]
11.4 µM: TGI [40]
40.4 µM: TGI [29]
13.3 µM: TGI [41]
20.8 µM: TGI [37]
18.3 µM: TGI [34]
> 100 µM: TGI [1] | TGI [3] | TGI [4] | TGI [5] | TGI [11] | TGI [13] | TGI [14] | TGI [17] | TGI [18] | TGI [22] | TGI [23] | TGI [24] | TGI [25] | TGI [27] | TGI [31] | TGI [35] | TGI [36] | TGI [38] | TGI [42] | TGI [43] | TGI [44] | TGI [45] | TGI [49] | TGI [50] | TGI [51] | TGI [52] | TGI [53]
70.9 µM: TGI [16]
62.2 µM: TGI [32]
34.5 µM: TGI [28]
62.9 µM: TGI [10]
10.7 µM: TGI [8]
90.9 µM: TGI [30]
inactive: GI50 [1] 5.54 µM | GI50 [2] 30.5 µM | GI50 [3] 6.18 µM | GI50 [4] 9.34 µM | GI50 [5] 5.27 µM | GI50 [6] 9.52 µM | GI50 [7] 4.4 µM | GI50 [8] 3.03 µM | GI50 [9] 2300 nM | GI50 [10] 2970 nM | GI50 [11] 31.6 µM | GI50 [12] 8.19 µM | GI50 [13] 78.6 µM | GI50 [14] 8.29 µM | GI50 [15] 6.38 µM | GI50 [16] 11.2 µM | GI50 [17] 12.6 µM | GI50 [18] 7.41 µM | GI50 [19] 8.01 µM | GI50 [20] 6.73 µM | GI50 [21] 1610 nM | GI50 [22] 4.16 µM | GI50 [23] 6.47 µM | GI50 [24] > 100 µM | GI50 [25] 7 µM | GI50 [26] 3.57 µM | GI50 [27] 55.2 µM | GI50 [28] 6.28 µM | GI50 [29] 3.62 µM | GI50 [30] 6.05 µM | GI50 [31] 14.3 µM | GI50 [32] 12 µM | GI50 [33] 2360 nM | GI50 [34] 7.4 µM | GI50 [35] 7.86 µM | GI50 [36] 2730 nM | GI50 [37] 6.37 µM | GI50 [38] 9.87 µM | GI50 [39] 2510 nM | GI50 [40] 2520 nM | GI50 [41] 1990 nM | GI50 [42] 14 µM | GI50 [43] 3.78 µM | GI50 [44] 5.68 µM | GI50 [45] > 100 µM | GI50 [46] 4.79 µM | GI50 [47] 7.64 µM | GI50 [48] 485 nM | GI50 [49] 5.38 µM | GI50 [50] 22.6 µM | GI50 [51] > 100 µM | GI50 [52] 8.89 µM | GI50 [53] 4.55 µM
45.5 µM: TGI [47]
11.5 µM: TGI [26]
7.68 µM: TGI [9]
37.8 µM: TGI [7]
35.6 µM: TGI [6]
16.6 µM: TGI [21]
6.45 µM: TGI [33]
12.1 µM: TGI [15]
69.6 µM: TGI [46]
99.3 µM: TGI [20]
52.9 µM: TGI [12]
29 µM: TGI [39]
61.3 µM: TGI [19]

O=C(O)[C@H](Cc1c[nH]c2ccccc12)N1C(=O)c2ccccc2C1=O
inactive: GI50 [1] > 100 µM | GI50 [2] > 100 µM | GI50 [54] > 100 µM | GI50 [3] > 100 µM | GI50 [4] > 100 µM | GI50 [5] > 100 µM | GI50 [6] > 100 µM | GI50 [7] > 100 µM | GI50 [8] > 100 µM | GI50 [9] > 100000 nM | GI50 [55] > 100 µM | GI50 [10] > 100000 nM | GI50 [11] > 100 µM | GI50 [12] > 100 µM | GI50 [13] > 100 µM | GI50 [14] > 100 µM | GI50 [15] > 100 µM | GI50 [16] > 100 µM | GI50 [17] > 100 µM | GI50 [18] > 100 µM | GI50 [19] > 100 µM | GI50 [20] > 100 µM | GI50 [21] > 100000 nM | GI50 [22] > 100 µM | GI50 [23] > 100 µM | GI50 [24] > 100 µM | GI50 [25] > 100 µM | GI50 [26] > 100 µM | GI50 [27] > 100 µM | GI50 [28] > 100 µM | GI50 [29] > 100 µM | GI50 [30] > 100 µM | GI50 [31] > 100 µM | GI50 [32] > 100 µM | GI50 [33] > 100000 nM | GI50 [34] > 100 µM | GI50 [35] > 100 µM | GI50 [56] > 100 µM | GI50 [57] > 100 µM | GI50 [58] > 100 µM | GI50 [36] > 100000 nM | GI50 [37] > 100 µM | GI50 [38] > 100 µM | GI50 [39] > 100000 nM | GI50 [40] > 100000 nM | GI50 [59] > 100 µM | GI50 [41] > 100000 nM | GI50 [42] > 100 µM | GI50 [43] > 100 µM | GI50 [44] > 100 µM | GI50 [45] > 100 µM | GI50 [46] > 100 µM | GI50 [47] > 100 µM | GI50 [48] > 100000 nM | GI50 [49] > 100 µM | GI50 [50] > 100 µM | GI50 [51] > 100 µM | GI50 [52] > 100 µM | GI50 [60] > 100 µM | GI50 [53] > 100 µM
> 100 µM: TGI [1] | TGI [2] | TGI [54] | TGI [3] | TGI [4] | TGI [5] | TGI [6] | TGI [7] | TGI [8] | TGI [9] | TGI [55] | TGI [10] | TGI [11] | TGI [12] | TGI [13] | TGI [14] | TGI [15] | TGI [16] | TGI [17] | TGI [18] | TGI [19] | TGI [20] | TGI [21] | TGI [22] | TGI [23] | TGI [24] | TGI [25] | TGI [26] | TGI [27] | TGI [28] | TGI [29] | TGI [30] | TGI [31] | TGI [32] | TGI [33] | TGI [34] | TGI [35] | TGI [56] | TGI [57] | TGI [58] | TGI [36] | TGI [37] | TGI [38] | TGI [39] | TGI [40] | TGI [59] | TGI [41] | TGI [42] | TGI [43] | TGI [44] | TGI [45] | TGI [46] | TGI [47] | TGI [48] | TGI [49] | TGI [50] | TGI [51] | TGI [52] | TGI [60] | TGI [53]
